Measurements: paper PMC7203153, “Rational identification and characterisation of peptide ligands for targeting polysialic acid” (Scientific Reports, 2020)
Where a SMILES comes first, the peptide text is derived from it.

Columns and labels:
[1] = Peptide microarray affinity screening against α-2,8-PSA (colominic acid); assay type: binding, Escherichia coli; conditions: 10 μM CA
Method: Peptide library synthesis, microarray preparation, and microarray screening were performed as described previously[25] with the following specifications. Siglec-related sequences were N-terminally acetylated to match the charge of the corresponding protein fragment. All peptides were printed in triplicate (60 nL spots), and each initial affinity screening was carried out at least three times. Screening was conducted with 10 μM colominic acid (CA; 5 mL per microarray), the Escherichia coli homolog of α-2,8-PSA identical in structure to human-derived PSA[67], and with antibody-based chemiluminescent detection of CA. For selectivity screening, microarrays were challenged with 10 μM CA with 0, 0.1, 1, and 10 μM α-2,8/9-PSA in separate conditions (5 mL total volume each), where molar concentrations were based on molecular weight estimation of synthesized 2,8/9-PSA (details on α-2,8/9-PSA production, purification, and analysis are provided in Supplementary Information). Selectivity screening with monomeric sialic acid was conducted with mass and molar equivalents of N-acetylneuraminic acid (Rose Scientific, Ltd.) along with 10 μM CA (5 mL total volume each). The mass equivalent amount of sialic acid (specifically, 970 μM sialic acid for a given volume of 10 μM CA) was calculated for CA of an average degree of polymerization of 100. For study of pH-dependent binding, affinity screening with CA was performed using PBS buffers of pH 6.0, 7.0, 7.4, and 8.0 (10 mM phosphate, 100 mM NaCl). The impact of NaCl on peptide binding was assessed at pH 7.4 with 0, 100, and 200 mM NaCl.
Microarray image and data analysis was performed as described. […] Of the triplicate experiments used to generate mean microarray affinity intensities in standard conditions (within each of which 762 peptides were represented in triplicate), 225 out of 762 values in one of these three experiments were derived from raw data previously reported, but were alternatively analysed as stated. Peptide isoelectric points were calculated with the EMBOSS iep program.

[2] = Fluorescence anisotropy (FA) assay of peptide–PSA binding; parameters: species or system Escherichia coli
Method: Peptides (Table 2) were synthesized at >95% purity (confirmed with HPLC) by Biomatik (see Supplementary Information). All peptides were N-terminally acetylated and C-terminally labelled with tetramethylrhodamine dye (TAMRA). TAMRA was chosen as a label due to its pH insensitivity compared to FAM (fluorescein) and related dyes commonly used for fluorescence assays. Experiments were conducted in black 384-well plates with non-binding surface (NBS, Corning, Inc.) to minimize background binding and enhance signal-to-noise ratio in the fluorescence-based binding assay. Titrations were carried out through addition of TAMRA-labelled peptide (8 μL, final concentration 20 nM) to CA (72 μL, final concentrations 0–1500 μM) in PBS, pH 7.4 (10 mM phosphate, 100 mM NaCl), and solutions were incubated with agitation to equilibrium at room temperature (3 h, ~20 °C). Parallel and perpendicular intensities were subsequently measured at 530 nm excitation (band width 5 nm) and 580 nm emission (band width 20 nm) in fluorescence polarization mode with a Tecan Infinite M1000 Pro plate reader. Total fluorescence intensities were also measured as a control for fluorophore properties with target binding; fluorescence intensities of free peptide were determined to be approximately equivalent to intensities with peptide–CA mixtures. At higher concentrations of free CA (control with no peptide addition), attenuation of detected light differed in parallel and perpendicular planes, so respective intensities were subtracted from peptide–CA intensities prior to anisotropy calculations. […] Unique samples were screened in at least triplicate within each titration experiment, and each peptide titration was carried out at least twice. In experimental repeats, peptide locations on plates were varied to prevent location-specific effects, if any, and different combinations of peptides were assessed at once. Anisotropies were calculated from corrected parallel and perpendicular intensities, and values were fit to the four-parameter logistic binding model[70] in MATLAB. Prior to curve fitting, anisotropy values for each peptide were transformed through subtraction of minimum values to enhance comparison between peptides. The resulting translations in binding curves were identical, within error, to change in anisotropy curves obtained through subtraction of anisotropy of free labelled peptide. Bmax and KD values obtained were used in the calculation of Bmax/KD ratios for comparison to microarray intensity values, and the Pearson correlation coefficient (r) was determined.

[3] = FA assay with Neu5Ac; assay type: binding; conditions: absence of PSA; Neu5Ac up to 150 mM; PBS pH 7.4
Method: (§1) a Neu5Ac concentration (µM) b Neu5Ac concentration (µM) c CS-A concentration (µM)
(§2) Supplementary Figure S4. (a–b) Interaction of I-P24 and I-P264 with Neu5Ac as asses sed by fluorescence anisotropy (FA) titrations in the (a) absence or (b ) presence of 500 µM P S A.
(§3) For a given volume, the highest concentration tested (150 mM) is approximately mass […]
(§4) equivalent to 1.5 mM PSA. […]
(§5) except for a small decrease in anisotropy at the highest concentrations of Neu 5Ac, indicating specific peptide binding to PSA. Error bars represent standard deviations from two independent experiments (0.15–15000 µM), with triplicate intra-as say measurements (0.15–150000 µM) .
(§6) (c) FA assay for binding of I-P24 and I-P264 to chondroitin sulphate A (CS-A). […] Anisotropies were determined from triplicate measurements (error bars excluded for clarity). […]
(§7) Asse ssment of selective binding of peptides with the FA assay is only presented in the context of alternative glycans as proof-of-principle above. However, given the comparatively lower sensitivity of microarray screening, FA may be employed for quantifying affinity in various buffers to asses s the effects of various ions, if any, on PSA binding. […]
(§8) (also on this page, place not known: Assessment assess assessed (b) Neu5Ac, PSA. intra-assay µM). assessment experiments, 5Ac (µM)a cNeu5Ac Anisotropy (mA) Anisotropy (mA) Anisotropy (mA)) […]

[4] = FA assay with chondroitin sulphate A; conditions: FA assay as for peptide–PSA; triplicate measurements; read-out: KD for binding to CS-A
Method: as §1, §2, §3, §4, §5, §6, §7, §8

With CC(=O)N[C@@H](Cc1ccccc1)C(=O)N[C@@H](CCCCN)C(=O)NCC(=O)N[C@@H](CCCNC(=N)N)C(=O)N[C@H](C(=O)N[C@@H](CO)C(=O)N1CCC[C@H]1C(=O)N[C@@H](CCCCN)C(=O)N[C@H](C(=O)NCC(=O)N[C@@H](C)C(=O)N1CCC[C@H]1C(=O)N[C@H](C(=O)N[C@@H](C)C(=O)N[C@H](C(N)=O)[C@@H](C)O)C(C)C)[C@@H](C)O)[C@@H](C)O [I-P24] (Ac-FKGRTSPKTGAPVAT-NH2) the “change in microarray binding with 200 mM vs 100 mM NaCl” value ([1]; pH 7.4) was “did not display any change in binding”, the “microarray binding to PSA without NaCl” value ([1]; pH 7.4, 0 mM NaCl) was “detectable binding” and the “microarray binding intensity (rank within library)” value ([1]; 762-peptide library, three independent screens, triplicate measurements) was “top 2%”. For the same compound, the “binding to PSA in competitive FA assay with Neu5Ac” value ([2]; 500 µM PSA (CA), Neu5Ac 0–150 mM, PBS pH 7.4) was “largely maintained”, the Kd ([2]; FA titration, N-acetylated, C-terminally TAMRA-labelled peptide 20 nM, CA 0–1500 μM, PBS pH 7.4 (10 mM phosphate, 100 mM NaCl), 3 h, ~20 °C, four-parameter logistic fit, at least two independent experiments, at least triplicate, * = accuracy likely poor (SE > KD)) was 521 µM and the “Bmax/KD ratio (binding potential)” value ([2]; from FA curve fits, among the peptides characterised with FA) was “highest”. For the same compound, the “binding to Neu5Ac by FA titration” value [3] was “minimal” and the Kd [4] was over 1000 µM.
